Experimental data from patent US10927155B2, “Dual inhibitory action peptidomimetic inhibitor for IL-33 and IL-1beta” (GEORGE MASON UNIVERSITY, priority 2015, dated 2021).
Bridge positions count the residues as written; N and C are the ends. Ends that are not written are not given here.

Tested on: IL-1β/IL-1R1 dependent signaling
Assay: HEK-Blue IL-33/IL-1β reporter cells (SEAP) stimulated with IL-1β
Assay type: cell-based
Conditions: FIG. 15; for IL-1β/IL-1R1 dependent signaling (NF-κB and AP-1): HEK Blue reporter cells stimulated with IL-1
Text: HEK-Blue™ IL-33/IL-1β cells were purchased from InvivoGen. These cells were transfected with a reporter gene, secreted embryonic alkaline phosphatase (SEAP), under the control of the IFN-β minimal promoter fused to five NF-κB and five AP-1 binding sites. In the presence of bioactive IL1β and/or IL33, HEK-Blue cells activate the NF-κB and AP-1 pathways triggering the production of SEAP. SEAP activity in cell supernatant is quantified using a colorimetric enzyme assay (QUANTI-Blue™, InvivoGen).
HEK Blue IL-33/IL-1β Reporter Cells. HEK-Blue™ IL-33/IL-1β Cells were purchased from InvivoGen. These cells were generated by transfection with a reporter gene, secreted embryonic alkaline phosphatase (SEAP), under the control of the IFN-β minimal promoter fused to five NF-κB and five AP-1 binding sites. In the presence of bioactive IL-1β and/or IL-33, HEK-Blue cells activated the NF-κB and AP-1 pathways triggering the production of SEAP. SEAP activity in cell supernatant was quantified using a colorimetric enzyme assay (QUANTI-Blue™, InvivoGen). HEK Blue cells were grown in DMEM, 4.5 g/l glucose, 2 mM L-Glutamine, 10% (v/v) heat-inactivated fetal bovine serum (30 min at 56° C.). After two passages, cells were exposed to selective medium (DMEM, 4.5 g/l glucose, 2 mM L-Glutamine, 10% heat-inactivated FBS (v/v) with of blasticidin (30 μg/ml), hygromycin B ([…]), and Zeocin™ ([…])). Cells were then plate in 96 well plates (10,000 cell per well) and stimulated with IL-1β (1 ng) and IL-33 (5 ng) in presence or absence of inhibitors.

Substance | IL-1β/IL-1R1 dependent signaling (NF-κB and AP-1) | signaling activity of cytokine specificity controls (cytokine used instead of IL-1 as stimulus)
TINESCSHSRTEDETRTQCLS [Cycl] | inhibit IL-1β/IL-1R1 dependent signaling | –
TINESISHSRTEDETRTQILS (Synthetic construct Arg286) | inhibit IL-1β/IL-1R1 dependent signaling | –
TINQSCSHSRTQNQTRTQCLS (disulfide 6-19 (inferred)) [RedAgg_Cycl, Arg286 peptide with glutamine replacements and two cysteines forming a disulfide bridge] | inhibit IL-1β/IL-1R1 dependent signaling | –
TINQSISHSRTQNQTRTQILS (Synthetic construct RedAgg) [Arg286 peptide with glutamic acid replaced by glutamine to reduce aggregation] | inhibit IL-1β/IL-1R1 dependent signaling | –
TNFα [reference compound] | – | no significant signaling activity
